Data: US20040077540A1, “Compositions and methods for modulating physiology of epithelial junctional adhesion molecules for enhanced mucosal delivery of therapeutic compounds” (Nastech Pharmaceutical Company Inc., priority 2002, published 2004)

System: EpiAirway™ Cell Membrane (mucosal epithelial cell layer)
Test: Transepithelial electrical resistance (TER) assay in EpiAirway Cell Membrane
Assay type: cell-based
Conditions: for Average TER Value: permeabilizing peptide 1.0 mM on EpiAirway Cell Membrane, each group of lines has its own CONTROL; for TER % of Control: permeabilizing peptide 1.0 mM, control normalized to 100, decrease = increased permeability
Method: The EpiAirway™ system was developed by MatTek Corp (Ashland, Mass.) as a model of the pseudostratified epithelium lining the respiratory tract. The epithelial cells are grown on porous membrane-bottomed cell culture inserts at an air-liquid interface, which results in differentiation of the cells to a highly polarized morphology. The apical surface is ciliated with a microvillous ultrastructure and the epithelium produces mucus (the presence of mucin has been confirmed by immunoblotting). The inserts have a diameter of 0.875 cm, providing a surface area of 0.6 cm^2. The cells are plated onto the inserts at the factory approximately three weeks before shipping. One “kit” consists of 24 units.
A. On arrival, the units are placed onto sterile supports in 6-well microplates. Each well receives 5 mL of proprietary culture medium. This DMEM-based medium is serum free but is supplemented with epidermal growth factor and other factors. […] The 5 mL volume is just sufficient to provide contact to the bottoms of the units on their stands, but the apical surface of the epithelium is allowed to remain in direct contact with air. Sterile tweezers are used in this step and in all subsequent steps involving transfer of units to liquid-containing wells to ensure that no air is trapped between the bottoms of the units and the medium.
B. The units in their plates are maintained at 37° C. in an incubator in an atmosphere of 5% CO2 in air for 24 hours. At the end of this time the medium is replaced with fresh medium and the units are returned to the incubator for another 24 hours.
A. A “kit” of 24 EpiAirway™ units can routinely be employed for evaluating five different formulations, each of which is applied to quadruplicate wells. Each well is employed for determination of permeation kinetics (4 time points), transepithelial electrical resistance (TER), mitochondrial reductase activity as measured by MTT reduction, and cytolysis as measured by release of LDH. An additional set of wells is employed as controls, which are sham treated during determination of permeation kinetics, but are otherwise handled identically to the test sample-containing units for determinations of transepithelial resistance and viability. The determinations on the controls are routinely also made on quadruplicate units, but occasionally we have employed triplicate units for the controls and have dedicated the remaining […] units in the kit to measurements of transepithelial resistance and viability on untreated units or we have frozen and thawed the units for determinations of total LDH levels to serve as a reference for 100% cytolysis.
A. Respiratory airway epithelial cells form tight junctions in vivo as well as in vitro, and thereby restrict the flow of solutes across the tissue. These junctions confer a transepithelial resistance of several hundred ohms×cm^2 in excised airway tissues. In the MatTek EpiAirway™ units, the transepithelial electrical resistance (TER) is reported by the manufacturer to be routinely around 1000 ohms×cm^2. […] The porous membrane-bottomed units without cells, conversely, provide only minimal transmembrane resistance (approximately 5-20 ohms×cm^2).
B. Accurate determinations of TER require that the electrodes of the ohmmeter be positioned over a significant surface area above and below the membrane, and that the distance of the electrodes from the membrane be reproducibly controlled. The method for TER determination recommended by MatTek and employed for all experiments herein employs an “EVOM”™ epithelial voltohmmeter and an “ENDOHM”™ tissue resistance measurement chamber from World Precision Instruments, Inc., Sarasota, Fla.
C. The chamber is initially filled with Dulbecco's phosphate buffered saline (PBS) for at least 20 minutes prior to TER determinations in order to equilibrate the electrodes.
D. Determinations of TER are made with 1.5 mL of PBS in the chamber and 350 μL of PBS in the membrane-bottomed unit being measured. […]

## VVQSTGQMQC [NP-36, Claudin-3: 1st extracellular domain]
  Average TER Value: 306 ± 58 ohms-cm^2
  TER % of Control: 67.0%

## FIGSNIVTSQ [NP-35, Claudin-4: 1st extracellular domain]
  Average TER Value: 298 ± 56 ohms-cm^2
  TER % of Control: 65.2%

## TTWLGLWMSC [NP-45, Claudin-1: 1st extracellular domain]
  Average TER Value: 456 ± 162 ohms-cm^2
  TER % of Control: 131.8%

## KFDQGDTTR [NP-6, JAM-1 extracellular domain]
  Average TER Value: 793 ± 44 ohms-cm^2
  TER % of Control: 150.5%

## NIWEGLWMNC [NP-34, Claudin-3: 1st extracellular domain]
  Average TER Value: 297 ± 40 ohms-cm^2
  TER % of Control: 65.0%

## KVYDSVLALS [NP-43, Claudin-5: 1st extracellular domain]
  Average TER Value: 446 ± 85 ohms-cm^2
  TER % of Control: 128.9%

## VVQSTGHMQC [NP-16, Claudin-5: 1st extracellular domain]
  Average TER Value: 386 ± 44 ohms-cm^2
  TER % of Control: 104.3%

## GEVKVKLIV [NP-9, JAM-1 extracellular domain]
  Average TER Value: 342 ± 185 ohms-cm^2
  TER % of Control: 92.4%

## KVYDSLLALP [NP-7, Claudin-3: 1st extracellular domain]
  Average TER Value: 811 ± 87 ohms-cm^2
  TER % of Control: 153.9%

## GYGYGYGYG [NP-4, Occludin: 1st extracellular domain]
  Average TER Value: 500 ± 42 ohms-cm^2
  TER % of Control: 94.9%

## AMYEGLWMSC [NP-38, Claudin-1 1st extracellular domain]
  Average TER Value: 291 ± 89 ohms-cm^2
  TER % of Control: 63.7%

## YGYGGYTDP [NP-15, Occludin: 1st extracellular domain]
  Average TER Value: 383 ± 79 ohms-cm^2
  TER % of Control: 103.5%

## FIGSNIITSQ [NP-37, Claudin-3: 1st extracellular domain]
  Average TER Value: 304 ± 41 ohms-cm^2
  TER % of Control: 66.5%

## VSQSTGQIQC [NP-18, Claudin-1: 1st extracellular domain]
  Average TER Value: 439 ± 145 ohms-cm^2
  TER % of Control: 118.6%

## YVGASIVTAV [NP-19, Claudin-2: 1st extracellular domain]
  Average TER Value: 374 ± 57 ohms-cm^2
  TER % of Control: 101.1%

## LVCYNNKIT [NP-13, JAM-1 extracellular domain]
  Average TER Value: 288 ± 51 ohms-cm^2
  TER % of Control: 93.5%

## VSEEGGNSY [NP-12, JAM-1 extracellular domain]
  Average TER Value: 279 ± 27 ohms-cm^2
  TER % of Control: 90.6%

## ATHSTGITQC [NP-44, Claudin-2: 1st extracellular domain]
  Average TER Value: 464 ± 61 ohms-cm^2
  TER % of Control: 134.1%

## SVTVHSSEP [NP-1, JAM-1 extracellular domain]
  Average TER Value: 606 ± 130 ohms-cm^2
  TER % of Control: 115.0%

## IVVREFYDPS [NP-14, Claudin-5: 2nd extracellular domain]
  Average TER Value: 286 ± 56 ohms-cm^2
  TER % of Control: 92.9%

## TIWEGLWMNC [NP-40, Claudin-4: 1st extracellular domain]
  Average TER Value: 457 ± 146 ohms-cm^2
  TER % of Control: 100.0%

## KVFDSLLNLS [NP-2, Claudin-1: 1st extracellular domain]
  Average TER Value: 709 ± 28 ohms-cm^2
  TER % of Control: 134.5%

## GGSVGYPYG [NP-39, Occludin: 1st extracellular domain]
  Average TER Value: 442 ± 185 ohms-cm^2
  TER % of Control: 127.7%

## GSGFGSYGS [NP-5, Occludin: 1st extracellular domain]
  Average TER Value: 520 ± 134 ohms-cm^2
  TER % of Control: 98.7%

## DRGYGTSLL [NP-3, Occludin: 1st extracellular domain]
  Average TER Value: 766 ± 94 ohms-cm^2
  TER % of Control: 145.4%

## FLDHNIVTAQ [NP-20, Claudin-5: 1st extracellular domain]
  Average TER Value: 341 ± 31 ohms-cm^2
  TER % of Control: 92.2%

## NRIVQEFYDP [NP-11, Claudin-1: 2nd extracellular domain]
  Average TER Value: 292 ± 20 ohms-cm^2
  TER % of Control: 94.8%
